Assay results as given in publication PMC4303209, “A novel phosphatidylinositol 3-kinase (PI3K) inhibitor directs a potent FOXO-dependent, p53-independent cell cycle arrest phenotype characterized by the differential induction of a subset of FOXO-regulated genes” (Breast Cancer Research : BCR, 2014).

Test system: MCF-7
Assay: Cell cycle analysis by flow cytometry (propidium iodide)
Assay type: cell-based, human
Conditions: MCF7 and U2OS with siRNA knockdown; data not shown

O=c1[nH]cc(F)c(=O)[nH]1 [5-fluorouracil]
cell cycle arrest response (control): potent p53-dependent cell cycle arrest response
